In the supplement of paper PMC10307832:

What was measured:
Experiment in all cases: relative viability (nuclei count vs DMSO), 5 days (fraction); higher = more cells survive
BAY61-3606 + Alpelisib = compound: COC1=C(C=C(C=C1)C2=CC3=NC=CN3C(=N2)NC4=C(C=CC=N4)C(=O)N)OC [BAY61-3606] + Cc1nc(NC(=O)N2CCC[C@H]2C(N)=O)sc1-c1ccnc(C(C)(C)C(F)(F)F)c1 [Alpelisib] (partner 2 µM)
In short: (§1)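 After 5 days of treatment, lung cancer cells in 1536-well plates were fixed and stained in a single step (final 0.05% Triton X-100, 1% formaldehyde, 1 ug/ml Hoechst) and their nuclei counted on 4× images. Treatment had been applied by pin tool the day after seeding as one drug alone or as a fixed anchor-drug dose with five library-drug doses (not always all listed) in √10 steps. Relative viability is the nuclei count of treated wells divided by that of vehicle wells, and values are medians of duplicate plates.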

[1] = compound: COc1cccc2c1C(=O)c1c(O)c3c(c(O)c1C2=O)C[C@@](O)(C(=O)CO)C[C@@H]3O[C@H]1C[C@H](N)[C@H](O)[C@H](C)O1 [Doxorubicin] + CC(=O)c1c(C)c2cnc(Nc3ccc(N4CCNCC4)cn3)nc2n(C2CCCC2)c1=O [Palbociclib] (partner 0.5 µM)
In short: as §1

Doxorubicin + AZD7762 = compound: COc1cccc2c1C(=O)c1c(O)c3c(c(O)c1C2=O)C[C@@](O)(C(=O)CO)C[C@@H]3O[C@H]1C[C@H](N)[C@H](O)[C@H](C)O1 [Doxorubicin] + NC(=O)Nc1cc(-c2cccc(F)c2)sc1C(=O)N[C@H]1CCCNC1 [AZD7762] (partner 0.2 µM)
In short: as §1

Doxorubicin + Bortezomib = compound: COc1cccc2c1C(=O)c1c(O)c3c(c(O)c1C2=O)C[C@@](O)(C(=O)CO)C[C@@H]3O[C@H]1C[C@H](N)[C@H](O)[C@H](C)O1 [Doxorubicin] + CC(C)C[C@H](NC(=O)[C@H](Cc1ccccc1)NC(=O)c1cnccn1)B(O)O [Bortezomib] (partner 0.002 µM)
In short: as §1

Cell Line	relative viability (BAY61-3606 + Alpelisib; first compound 0.02 µM)	relative viability (BAY61-3606 + Alpelisib; first compound 0.06325 µM)	relative viability (BAY61-3606 + Alpelisib; first compound 0.2 µM)	relative viability (BAY61-3606 + Alpelisib; first compound 0.6325 µM)	relative viability (BAY61-3606 + Alpelisib; first compound 2 µM)	relative viability ([1]; first compound 0.001 µM)	relative viability ([1]; first compound 0.003162 µM)	relative viability ([1]; first compound 0.01 µM)	relative viability ([1]; first compound 0.03162 µM)	relative viability ([1]; first compound 0.1 µM)	relative viability (Doxorubicin + AZD7762; first compound 0.001 µM)	relative viability (Doxorubicin + AZD7762; first compound 0.003162 µM)	relative viability (Doxorubicin + AZD7762; first compound 0.01 µM)	relative viability (Doxorubicin + AZD7762; first compound 0.03162 µM)	relative viability (Doxorubicin + AZD7762; first compound 0.1 µM)	relative viability (Doxorubicin + Bortezomib; first compound 0.001 µM)	relative viability (Doxorubicin + Bortezomib; first compound 0.003162 µM)	relative viability (Doxorubicin + Bortezomib; first compound 0.01 µM)	relative viability (Doxorubicin + Bortezomib; first compound 0.03162 µM)	relative viability (Doxorubicin + Bortezomib; first compound 0.1 µM)
NCI-H358	0.996	0.753	0.732	0.643	0.228	0.129	0.141	0.118	0.0838	0.1	0.548	0.542	0.597	0.367	0.258	–	–	–	–	–
EBC-1	0.907	0.902	0.869	0.928	0.686	–	–	–	–	–	–	–	–	–	–	0.589	0.52	0.542	0.363	0.222
NCI-H2009	1.11	1.14	1.09	1.21	1.08	0.238	0.207	0.179	0.0594	0.168	–	–	–	–	–	0.914	1.1	0.912	0.572	0.266
NCI-H520	1.07	0.801	1.11	1.04	1.02	0.213	0.216	0.183	0.175	0.203	–	–	–	–	–	0.575	0.581	0.46	0.361	0.269
SW 1573	0.838	0.679	0.88	0.822	0.451	0.365	0.316	0.162	0.0939	0.0476	–	–	–	–	–	0.98	1.1	0.817	0.466	0.339
NCI-H1563	1.02	0.905	0.894	0.894	0.683	–	–	–	–	–	–	–	–	–	–	0.716	0.772	0.594	0.515	0.421
NCI-H1648	–	–	–	–	–	0.283	0.294	0.286	0.245	0.258	0.762	0.524	0.741	0.843	0.654	–	–	–	–	–
ChaGo-K-1	–	–	–	–	–	0.962	0.912	0.911	0.939	0.974	0.857	0.922	0.873	0.846	0.811	1.16	0.832	0.948	0.47	0.319
COR-L23	0.868	0.764	0.753	0.78	0.486	0.327	0.274	0.236	0.181	0.106	–	–	–	–	–	1.04	0.996	0.872	0.447	0.156
COR-L 105	0.942	0.988	0.76	1.02	0.788	0.436	0.387	0.367	0.37	0.327	–	–	–	–	–	0.787	0.71	0.74	0.41	0.256
LK-2	1.11	0.874	1.17	1.15	0.996	0.704	0.773	0.637	0.487	0.515	0.354	0.578	0.274	0.341	0.251	–	–	–	–	–
